The text below walks through data of patent publication US4088772A, “Methanodibenzocycloheptapyrroles” (E. I. Du Pont de Nemours and Company, priority 1975, dated 1978).

Data set [1] in a line: in vivo. As to conditions: mouse, in vivo, po.
Data set [2] has as its system female white mice. As to the kind of experiment: animal or person. The settings on record: Mus musculus, po.
In data set [3] the test system is female CF1 S mice. As to the kind of experiment: Mouse spontaneous motor activity (activity cage). Type of data set: in vivo, mouse (CF1 S female). The settings on record: 0.5 h, read-out: Exploratory Loss Activity Cage ED50. The procedure:
Mouse Spontaneous Motor Activity (Activity Cage)
Twenty-four per dose, 16- 20 g or 18-22 g, female CF1 S mice, fasted 16- 22 hours, are intubated (in pairs) with drug at t doses such as 0, 1, 3, 9, 27 and 81 mg/kg in 10 ml/kg of aqueous 1% methylcellulose. The mice are then put in separate "shoe-box" cages (12 × 7.5 × 5.3 inches plastic with a 0.33 inch mesh stainless steel lid), and 20 minutes after intubation the animals in pairs are moved to covered Woodard Photoelectric Activity Chambers (central light source type measurement floor area = 96 in^2). Ten minutes later (30 minutes after dosing) a 5-minute count is taken. Counting chamber characteristics are balanced out by counting 2 pairs of mice from each dose level in each of 6 different counting chambers. Half of each test is run in the a.m. and the other half is run in the p.m. to minimize "biological clock" variations.
Canad. Biol. 20, 239-50 (1961), raw counts are thus transformed for statistical treatment (Student's t test). The means of the square roots then are squared and an ED50 for stimulation or depression (or both) is determined graphically.

The test system of data set [4] is phenylquinone-induced writhing. As to the kind of experiment: Phenylquinone writhing test (analgesia). Type of data set: in vivo, mouse (Carworth CF1 S female). The settings on record: Mus musculus, po, Table 1, mice. The text has this: This mouse test is predictive of analgesic response in humans. [E. Siegmund, R. Cadmus and G. Lee, Proc. Soc.
ED50 values were obtained graphically from the data.
Background: In writhing tests, fewer writhes than in controls are read as antinociception.

For data set [5], the system named is Holzman male white rats. As to the kind of experiment: Rat approach-avoidance test (anti-anxiety). As to conditions: for anti-anxiety activity: in words; for ED50: Rattus norvegicus. The format is in vivo, rat (Holzman male white). On the procedure:
Potential as anti-anxiety agents was assessed by means of the potency of these compounds in the rat approach-avoidance test.
Approach-Avoidance Test Method
18 hr. waterdeprived Holzman male white rats, 150-175 g each, were used. The apparatus consists of two interconnected chambers, the first in which the animal is placed, and a second which contains the stimulus and a water bottle. The second is fitted with an electrifiable floor. On the first day, the rats are placed in the first chamber. They are allowed three minutes to find the water bottle in the second chamber and to drink water for at least two seconds. After three successful trials on the first day the animals are given one predrug trial on the second day. Then follows a second predrug trial during which the floor of the second chamber is electrified 1.5 seconds after the rat has commenced drinking water. The animals are randomized, dosed orally, and reexposed to the test situation at 1, 2, or 4 hours after the shock trial.

Where [6] appears, read: read-out: Catatonia ED50, Table 1, oral, mice.
The mark [7] stands for this setting: read-out: Exploratory Loss Visual ED50, Table 1, oral, mice.
Where [8] appears, read: read-out: Muscle Tone ED50, Table 1, oral, mice.
The mark [9] stands for this setting: read-out: Ptosis ED50, Table 1, oral, mice.
[10] abbreviates: read-out: Reflexes Grip ED50, Table 1, oral, mice.
Setting [11] is: read-out: Reflexes Lift ED50, Table 1, oral, mice.
Where [12] appears, read: read-out: Reflexes Pinna ED50, Table 1, oral, mice.
Where [13] appears, read: Table 1, oral, mice, 30 minutes after dosing.
The mark [14] stands for this setting: read-out: Ptosis ED50, Table 1, Extrapolated value.
The mark [15] stands for this setting: 0.3 mg/kg oral, 4 hrs, N=10 rats.
The mark [16] stands for this setting: Table II, oral, rats, 4 hrs, read-out: ED50.

Like-named read-outs stand apart in the source and are kept apart here.

As a reminder, the ED50 is the dose at which the effect has come halfway, by size or by number of responders. The LD50 is the dose expected to kill half of the subjects tested. A high value points to a less toxic substance. Regarding `c1ccc2c(c1)[C@@H]1C[C@@]3(CN(C[C@@H]4C[C@H]5CC[C@@H]4C5)C[C@H]23)c2ccccc21` (relative stereo) [Example 35, 2-(2-Exo-bicyclo[2.2.1]heptylmethyl)-2,3,8,12b-tetrahydro-1H-3a,8-methanodibenzo[3,4:6,7]cyclohepta[1,2-c]pyrrole], the ED50 in data set [1] was > 324 mg/kg; in data set [2] (setting [6]), 15 mg/kg; in data set [2] (setting [7]) it was 8.6 mg/kg; in data set [2] (setting [8]), 12 mg/kg; in data set [2] (setting [9]) it was 5.1 mg/kg; in data set [2] (setting [10]) it was > 324 mg/kg. In addition, the ED50 in data set [2] (setting [11]) was found to be 29 mg/kg; in data set [2] (setting [12]), 21 mg/kg; in data set [3] (setting [13]), 3.3 mg/kg; in data set [4], 6.2 mg/kg. The LD50 at 24 h in data set [1] was > 324 mg/kg.

As to `CN(C)CCCN1c2ccccc2Sc2ccc(Cl)cc21` [Chlopromazine, Chlorpromazine, reference compound], the results for the ED50 in data set [1] (Tremors ED50) and in data set [3] (po) were > 324 mg/kg and 7.3 mg/kg, respectively. For the same compound, in data set [5], the anti-anxiety activity entry is “not active at non-sedating doses”.

Regarding `CN1C(=O)CN=C(c2ccccc2)c2cc(Cl)ccc21` [Diazepam, reference compound], the median effective dose (ED50) in data set [1] (Tremors ED50, Table 1, mice) was > 324 mg/kg; in data set [3] (po), 2 mg/kg; in data set [5] (po, 1 h), 6 mg/kg. In addition, the “No. of Responders” value is recorded as 0 in data set [5] (1 mg/kg oral, 1 hr, N=6 rats); 2 in data set [5] (3 mg/kg oral, 1 hr, N=6 rats); 5 in data set [5] (10 mg/kg oral, 1 hr, N=6 rats). Moreover, the anti-anxiety activity result in data set [5] is “active in this test”.

For the compound `c1ccc(CN2CC3c4ccccc4C4CC3(C2)c2ccccc24)cc1` (centres unmarked) [Example 4, 2-Benzyl-2,3,8,12b-tetrahydro-1H-3a,8-methanodibenzo[3,4:6,7]cyclohepta[1,2-c]pyrrole], the ED50 is > 324 mg/kg in data set [1]; 20 mg/kg in data set [2] (setting [6]); 20 mg/kg in data set [2] (setting [7]); 20 mg/kg in data set [2] (setting [8]); 20 mg/kg in data set [2] (setting [9]); > 324 mg/kg in data set [2] (setting [10]). The ED50 is 36 mg/kg in data set [2] (setting [11]), 300 mg/kg in data set [2] (setting [12]), 4.6 mg/kg in data set [3] (setting [13]) and 9.4 mg/kg in data set [4]. The LD50 at 24 h in data set [1] was > 324 mg/kg.

`c1ccc2c(c1)C1CC3(CN(CC4CCCC4)CC23)c2ccccc21` (centres unmarked) [Example 7, 2-Cyclopentylmethyl-2,3,8,12b-tetrahydro-1H-3a,8-methanodibenzo[3,4:6,7]cyclohepta[1,2-c]pyrrole]: the ED50 in data set [1] is > 324 mg/kg; in data set [2] (setting [6]), 8 mg/kg; in data set [2] (setting [7]) it was 7 mg/kg; in data set [2] (setting [8]), 7 mg/kg; in data set [2] (setting [14]), 3 mg/kg; in data set [2] (setting [10]) it was 210 mg/kg. The ED50 in data set [2] (setting [11]) was found to be 11 mg/kg; in data set [2] (setting [12]), 9 mg/kg; in data set [3] (setting [13]), 0.66 mg/kg; in data set [4], 2 mg/kg; in data set [5] (setting [16]) it was 0.2 mg/kg. Moreover, the LD50 at 24 h in data set [1] is > 324 mg/kg. For the same compound, the “No. of Responders” value in data set [5] (0.03 mg/kg oral, 4 hrs, N=10 rats) came to 1; in data set [5] (0.1 mg/kg oral, 4 hrs, N=20 rats), 7; in data set [5] (setting [15]), 6. Further, in data set [5], the anti-anxiety activity entry is “potent anti-anxiety or minor tranquilizer activity”.

On to `CCCCCCN1CC2c3ccccc3C3CC2(C1)c1ccccc13` (centres unmarked) [Example 14, 2-n-Hexyl-2,3,8,12 b-tetrahydro-1H-3a,8-methanodibenzo[3,4:6,7]cyclohepta[1,2-c]pyrrole], for which the ED50 turned out to be 326 mg/kg in data set [1]; 5.6 mg/kg in data set [2] (setting [6]); 7 mg/kg in data set [2] (setting [7]); 4.1 mg/kg in data set [2] (setting [8]); 4.5 mg/kg in data set [2] (setting [9]); 187 mg/kg in data set [2] (setting [10]). Further, the ED50 is 8.6 mg/kg in data set [2] (setting [11]), 11 mg/kg in data set [2] (setting [12]), 1.3 mg/kg in data set [3] (setting [13]) and 2.6 mg/kg in data set [4]. Further, the median lethal dose (LD50) at 24 h in data set [1] was > 324 mg/kg.

With `CCCCCCCN1CC2c3ccccc3C3CC2(C1)c1ccccc13` (centres unmarked) [Example 15, 2-n-Heptyl-2,3,8,12b-tetrahydro-1H-3a,8-methanodibenzo[3,4:6,7]cyclohepta[1,2-c]pyrrole], the ED50 in data set [1] was > 324 mg/kg; in data set [2] (setting [6]), 5 mg/kg; in data set [2] (read-out: Exploratory Loss Visual ED50, Table 1, Extrapolated value), 3.2 mg/kg; in data set [2] (read-out: Muscle Tone ED50, Table 1, Extrapolated value) it was 3 mg/kg; in data set [2] (setting [9]), < 3 mg/kg; in data set [2] (setting [10]) it was 260 mg/kg. Also, the values for the ED50 in data set [2] (setting [11]), in data set [3] (setting [13]) and in data set [4] were 9 mg/kg, 1 mg/kg and 3.6 mg/kg, respectively. For the same compound, the LD50 at 24 h in data set [1] was > 324 mg/kg.

For `c1ccc2c(c1)C1CC3(CN(CC4CCCCC4)CC23)c2ccccc21` (centres unmarked) [Example 25, 2-Cyclohexylmethyl-2,3,8,12b-tetrahydro-1H-3a,8-methanodibenzo[3,4:6,7]cyclohepta[1,2-c]pyrrole], the 50% effective dose (ED50) was 450 mg/kg in data set [1]; 9 mg/kg in data set [2] (setting [6]); 9 mg/kg in data set [2] (setting [7]); 8 mg/kg in data set [2] (setting [8]); 3 mg/kg in data set [2] (setting [14]); 450 mg/kg in data set [2] (read-out: Reflexes Grip ED50, Table 1, Extrapolated value). The ED50 is 8 mg/kg in data set [2] (setting [11]); 7 mg/kg in data set [2] (setting [12]); 4.7 mg/kg in data set [3] (setting [13]); 6.4 mg/kg in data set [4]; 0.5 mg/kg in data set [5] (setting [16]). The LD50 at 24 h in data set [1] came to 320 mg/kg. Moreover, the “No. of Responders” value in data set [5] (0.1 mg/kg oral, 4 hrs, N=10 rats) came to 1; in data set [5] (setting [15]), 2; in data set [5] (1.0 mg/kg oral, 4 hrs, N=8 rats), 5. Further, the anti-anxiety activity result in data set [5] was “potent anti-anxiety or minor tranquilizer activity”.

Turning to `C1=C(CN2CC3c4ccccc4C4CC3(C2)c2ccccc24)CCCC1` (centres unmarked) [Example 26, 2-(1-Cyclohexenylmethyl)-2,3,8,12b-tetrahydro-1H-3a,8-methanodibenzo[3.4:6,7]cyclohepta[1,2-c]pyrrole], the 50% effective dose (ED50) is > 324 mg/kg in data set [1]; 10 mg/kg in data set [2] (setting [6]); 12 mg/kg in data set [2] (setting [7]); 7 mg/kg in data set [2] (setting [8]); 6 mg/kg in data set [2] (setting [9]); 400 mg/kg in data set [2] (setting [10]). The ED50 came to 15 mg/kg in data set [2] (setting [11]), 15 mg/kg in data set [2] (setting [12]), 0.8 mg/kg in data set [3] (setting [13]) and 6.8 mg/kg in data set [4]. The LD50 at 24 h in data set [1] is > 324 mg/kg.

`C1=CCC(CN2CC3c4ccccc4C4CC3(C2)c2ccccc24)CC1` (centres unmarked) [Example 27, 2-(3-Cyclohexenylmethyl)-2,3,8,12b-tetrahydro-1H-3a,8-methanodibenzo[3,4:6,7]cyclohepta[1,2-c]pyrrole]: the ED50 in data set [1] was > 324 mg/kg; in data set [2] (setting [6]), 4.5 mg/kg; in data set [2] (setting [7]), 4.5 mg/kg; in data set [2] (setting [8]) it was 4.5 mg/kg; in data set [2] (setting [9]), 2.9 mg/kg; in data set [2] (setting [10]), 97 mg/kg. Also, the ED50 in data set [2] (setting [11]) was 9 mg/kg; in data set [2] (setting [12]), 8 mg/kg; in data set [3] (setting [13]), 0.29 mg/kg; in data set [4] it was 4.2 mg/kg. Besides, in data set [1], the LD50 at 24 h is > 324 mg/kg.
